Experimental data as given in article PMC8699473, “An Easily Expandable Multi-Drug LC-MS Assay for the Simultaneous Quantification of 57 Oral Antitumor Drugs in Human Plasma” (Cancers, 2021).

Assay: Long-term stability in spiked pooled human plasma

Row | Compound | Long-term stability, 1 month, -20°C Accuracy [%] (validation standard 2xLLOV) | Long-term stability, 1 month, -80°C Accuracy [%] (validation standard 2xLLOV) | Long-term stability, 2 month, -20°C Accuracy [%] (validation standard 2xLLOV) | Long-term stability, 2 month, -80°C Accuracy [%] (validation standard 2xLLOV) | Long-term stability, 3 month, -20°C Accuracy [%] (validation standard 2xLLOV) | Long-term stability, 3 month, -80°C Accuracy [%] (validation standard 2xLLOV) | Long-term stability, 6 weeks, 4°C, without daylight Accuracy [%] (validation standard 2xLLOV) | Long-term stability, 1 month, -20°C Accuracy [%] (validation standard LLOV) | Long-term stability, 1 month, -80°C Accuracy [%] (validation standard LLOV) | Long-term stability, 2 month, -20°C Accuracy [%] (validation standard LLOV) | Long-term stability, 2 month, -80°C Accuracy [%] (validation standard LLOV) | Long-term stability, 3 month, -20°C Accuracy [%] (validation standard LLOV) | Long-term stability, 3 month, -80°C Accuracy [%] (validation standard LLOV) | Long-term stability, 6 weeks, 4°C, without daylight Accuracy [%] (validation standard LLOV) | Long-term stability, 1 month, -20°C Accuracy [%] (validation standard MOV) | Long-term stability, 1 month, -80°C Accuracy [%] (validation standard MOV) | Long-term stability, 2 month, -20°C Accuracy [%] (validation standard MOV) | Long-term stability, 2 month, -80°C Accuracy [%] (validation standard MOV) | Long-term stability, 3 month, -20°C Accuracy [%] (validation standard MOV) | Long-term stability, 3 month, -80°C Accuracy [%] (validation standard MOV) | also measured
1 | Cc1ccc(NC(=O)c2ccc(CN3CCN(C)CC3)cc2)cc1Nc1nccc(-c2cccnc2)n1 [Imatinib] | 97.8 | 96.3 | 104.1 | 112.9 | 64.1 | 72.7 | 103.4 | 88.0 | 77.3 | 95.6 | 103.3 | 19.7 | 18.2 | 86.4 | 87.1 | 84.4 | 99.4 | 96.4 | 90.0 | 90.1 | Long-term stability, 6 weeks, 4°C, without daylight Accuracy [%] (validation standard MOV): 95.4%; Long-term stability, 1 month, -20°C Accuracy [%] (validation standard ULOV): 87.9%; Long-term stability, 1 month, -80°C Accuracy [%] (validation standard ULOV): 79.8%; Long-term stability, 2 month, -20°C Accuracy [%] (validation standard ULOV): 91.0%; Long-term stability, 2 month, -80°C Accuracy [%] (validation standard ULOV): 89.1%; Long-term stability, 3 month, -20°C Accuracy [%] (validation standard ULOV): 89.6%; Long-term stability, 3 month, -80°C Accuracy [%] (validation standard ULOV): 89.4%; Long-term stability, 6 weeks, 4°C, without daylight Accuracy [%] (validation standard ULOV): 89.8%
2 | C[C@@H](Oc1cc(-c2cnn(C3CCNCC3)c2)cnc1N)c1c(Cl)ccc(F)c1Cl [Crizotinib] | 87.5 | 85.4 | 90.8 | 93.8 | 87.5 | 90.2 | 68.4 | 77.1 | 75.4 | 74.2 | 78.9 | 72.6 | 73.9 | 58.2 | 90.2 | 89.3 | 96.3 | 96.2 | 94.9 | 95.1 | Long-term stability, 6 weeks, 4°C, without daylight Accuracy [%] (validation standard MOV): 93.4%; Long-term stability, 1 month, -20°C Accuracy [%] (validation standard ULOV): 84.4%; Long-term stability, 1 month, -80°C Accuracy [%] (validation standard ULOV): 80.1%; Long-term stability, 2 month, -20°C Accuracy [%] (validation standard ULOV): 88.8%; Long-term stability, 2 month, -80°C Accuracy [%] (validation standard ULOV): 89.2%; Long-term stability, 3 month, -20°C Accuracy [%] (validation standard ULOV): 88.4%; Long-term stability, 3 month, -80°C Accuracy [%] (validation standard ULOV): 89.7%; Long-term stability, 6 weeks, 4°C, without daylight Accuracy [%] (validation standard ULOV): 83.8%
3 | CN(C)C/C=C/C(=O)Nc1cc2c(Nc3ccc(F)c(Cl)c3)ncnc2cc1O[C@H]1CCOC1 [Afatinib] | 79.7 | 90.7 | 72.1 | 92.5 | 76.9 | 94.1 | 26.7 | 70.0 | 75.4 | 68.4 | 85.8 | 68.4 | 90.0 | 2.9 | 87.9 | 93.1 | 84.4 | 96.0 | 78.2 | 96.4 | Long-term stability, 6 weeks, 4°C, without daylight Accuracy [%] (validation standard MOV): 44.2%; Long-term stability, 1 month, -20°C Accuracy [%] (validation standard ULOV): 86.5%; Long-term stability, 1 month, -80°C Accuracy [%] (validation standard ULOV): 91.2%; Long-term stability, 2 month, -20°C Accuracy [%] (validation standard ULOV): 88.3%; Long-term stability, 2 month, -80°C Accuracy [%] (validation standard ULOV): 96.0%; Long-term stability, 3 month, -20°C Accuracy [%] (validation standard ULOV): 82.8%; Long-term stability, 3 month, -80°C Accuracy [%] (validation standard ULOV): 92.1%; Long-term stability, 6 weeks, 4°C, without daylight Accuracy [%] (validation standard ULOV): 37.3%
4 | COc1cc2nccc(Oc3ccc(NC(=O)NC4CC4)c(Cl)c3)c2cc1C(N)=O [Lenvatinib] | 99.7 | 94.9 | 97.0 | 100.9 | 103.0 | 104.8 | 105.2 | 109.4 | 107.0 | 102.7 | 108.7 | 105.7 | 110.3 | 127.4 | 95.8 | 94.5 | 98.2 | 97.2 | 99.7 | 100.5 | Long-term stability, 6 weeks, 4°C, without daylight Accuracy [%] (validation standard MOV): 107.3%; Long-term stability, 1 month, -20°C Accuracy [%] (validation standard ULOV): 96.4%; Long-term stability, 1 month, -80°C Accuracy [%] (validation standard ULOV): 94.7%; Long-term stability, 2 month, -20°C Accuracy [%] (validation standard ULOV): 101.7%; Long-term stability, 2 month, -80°C Accuracy [%] (validation standard ULOV): 101.9%; Long-term stability, 3 month, -20°C Accuracy [%] (validation standard ULOV): 98.3%; Long-term stability, 3 month, -80°C Accuracy [%] (validation standard ULOV): 100.8%; Long-term stability, 6 weeks, 4°C, without daylight Accuracy [%] (validation standard ULOV): 101.9%
5 | C#Cc1cccc(Nc2ncnc3cc(OCCOC)c(OCCOC)cc23)c1 [Erlotinib] | 102.3 | 98.1 | 106.4 | 105.9 | 106.0 | 105.8 | 95.9 | 113.5 | 108.0 | 113.2 | 114.8 | 111.5 | 114.1 | 107.0 | 97.4 | 97.0 | 102.2 | 101.3 | 102.2 | 102.8 | Long-term stability, 6 weeks, 4°C, without daylight Accuracy [%] (validation standard MOV): 111.0%; Long-term stability, 1 month, -20°C Accuracy [%] (validation standard ULOV): 99.6%; Long-term stability, 1 month, -80°C Accuracy [%] (validation standard ULOV): 97.8%; Long-term stability, 2 month, -80°C Accuracy [%] (validation standard ULOV): 104.4%; Long-term stability, 3 month, -20°C Accuracy [%] (validation standard ULOV): 101.8%; Long-term stability, 3 month, -80°C Accuracy [%] (validation standard ULOV): 104.4%; Long-term stability, 6 weeks, 4°C, without daylight Accuracy [%] (validation standard ULOV): 103.7%
6 | O=C(c1cc(Cc2n[nH]c(=O)c3ccccc23)ccc1F)N1CCN(C(=O)C2CC2)CC1 [Olaparib] | 100.3 | 98.2 | 103.8 | 103.3 | 99.8 | 103.3 | 96.6 | 112.8 | 110.5 | 115.9 | 115.8 | 111.4 | 115.4 | 105.6 | 95.3 | 92.9 | 97.5 | 96.8 | 97.6 | 96.7 | Long-term stability, 6 weeks, 4°C, without daylight Accuracy [%] (validation standard MOV): 107.5%; Long-term stability, 1 month, -20°C Accuracy [%] (validation standard ULOV): 99.1%; Long-term stability, 1 month, -80°C Accuracy [%] (validation standard ULOV): 98.1%; Long-term stability, 2 month, -20°C Accuracy [%] (validation standard ULOV): 102.1%; Long-term stability, 2 month, -80°C Accuracy [%] (validation standard ULOV): 101.1%; Long-term stability, 3 month, -20°C Accuracy [%] (validation standard ULOV): 98.9%; Long-term stability, 3 month, -80°C Accuracy [%] (validation standard ULOV): 100.7%; Long-term stability, 6 weeks, 4°C, without daylight Accuracy [%] (validation standard ULOV): 105.6%
7 | Nc1cccc2c1C(=O)N(C1CCC(=O)NC1=O)C2=O (stereo not shown) [Pomalidomide] | 90.4 | 90.2 | 107.3 | 96.6 | 95.5 | 97.4 | 19.0 | 91.3 | 85.8 | 95.9 | 99.9 | 97.6 | 97.4 | 30.1 | 90.6 | 88.3 | 97.2 | 99.4 | 90.0 | 94.9 | Long-term stability, 6 weeks, 4°C, without daylight Accuracy [%] (validation standard MOV): 15.7%; Long-term stability, 1 month, -20°C Accuracy [%] (validation standard ULOV): 94.6%; Long-term stability, 1 month, -80°C Accuracy [%] (validation standard ULOV): 89.1%; Long-term stability, 2 month, -20°C Accuracy [%] (validation standard ULOV): 94.1%; Long-term stability, 2 month, -80°C Accuracy [%] (validation standard ULOV): 99.0%; Long-term stability, 3 month, -20°C Accuracy [%] (validation standard ULOV): 87.6%; Long-term stability, 3 month, -80°C Accuracy [%] (validation standard ULOV): 95.1%; Long-term stability, 6 weeks, 4°C, without daylight Accuracy [%] (validation standard ULOV): 11.3%
8 | O=c1[nH]c(=O)n([C@H]2C[C@H](O)[C@@H](CO)O2)cc1C(F)(F)F [Trifluridine] | 112.0 | 105.0 | 107.3 | 104.3 | 103.6 | 99.5 | 68.8 | 97.0 | 95.2 | 79.5 | 70.3 | 89.9 | 85.8 | 49.1 | 99.4 | 94.6 | 109.3 | 104.7 | 92.2 | 90.8 | Long-term stability, 6 weeks, 4°C, without daylight Accuracy [%] (validation standard MOV): 59.0%; Long-term stability, 1 month, -20°C Accuracy [%] (validation standard ULOV): 93.7%; Long-term stability, 1 month, -80°C Accuracy [%] (validation standard ULOV): 88.8%; Long-term stability, 2 month, -20°C Accuracy [%] (validation standard ULOV): 98.4%; Long-term stability, 2 month, -80°C Accuracy [%] (validation standard ULOV): 95.5%; Long-term stability, 3 month, -20°C Accuracy [%] (validation standard ULOV): 82.1%; Long-term stability, 3 month, -80°C Accuracy [%] (validation standard ULOV): 79.9%; Long-term stability, 6 weeks, 4°C, without daylight Accuracy [%] (validation standard ULOV): 27.1%
